Assay results as given in US8691584B2, “Sperm processing methods” (priority 2003, dated 2014).

Test system: Spermatozoa
Test: Post-thaw sperm motility under phase contrast microscope (Cryopreservation Example I)
Format: cell-based, Bovine
Details: Hoechst 33342 added to aliquots in TCA buffer, 20 min at 35° C. or 41° C., cryopreserved, thawed 37° C. 50 seconds; analysis of variance
Procedure: Bovine semen was collected, transported, and evaluated as described above. Two test tubes containing 5 ml each of TCA buffer (pH 7.3) were placed in one of two water baths for at least five minutes. One water bath was at a temperature of 35° C. and the other water bath was at 41° C. Spermatozoa at 24° C. were added to each tube so that the final concentration in each tube was 150×10^6 sperm/ml. The two tubes were each divided into two aliquots which were kept in respective water baths. After the sperm had equilibrated with the TCA buffer for five minutes, […] was added to one of 35° C. aliquots and one of the 41° C. aliquots. After addition of the Hoechst 33342, all four aliquots were incubated for 20 minutes in their respective water bath. After incubation, the test tubes were removed from the water baths and left at room temperature (about 25° C.) for five minutes. Then the contents of each test tube were diluted with a TCA extender containing 20% egg yolk and 6% glycerol (v/v) (pH 7.0) to a final concentration of 20×10^6 sperm/ml. The contents of each test tube were then used to fill a 0.5 ml artificial insemination straw. Each of the four straws was placed in a programmable freezer (an IceCube 1810CD freezer from Minitube of America, Wis.). […]

CCOc1ccc(-c2nc3ccc(-c4nc5ccc(N6CCN(C)CC6)cc5[nH]4)cc3[nH]2)cc1 [Hoechst 33342]
effect on post-thaw sperm motility: no significant effect
